Laboratory results reported in PubChem BioAssay AID489034 (Sanford-Burnham Center for Chemical Genomics, 2010).
Active and inactive are the calls of the source.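 Rule for the calls: active = mean IC50 at or below a set limit; inactive = the rest.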

Test system: 697 B-cell NF-kB luciferase reporter, PMA/ionomycin, 16 h
Test: NF-kB reporter suppression in B cells – 697 B cells, PMA/ionomycin, luminescence, dose response (AID 489034)
Settings: not given

Compound | IC50
Cn1nc(CC(=O)Nc2ccc3c(c2)CCC3)c2ccccc2c1=O | > 80 µM (inactive)
OCCCNc1nccc(-c2cc(Nc3cccc(Cl)c3)ncn2)n1 | 4.1 µM
CCOc1ccc(-c2cc(CCCC(=O)Nc3cccc(OC)c3)no2)cc1 | 11.3 µM
Nc1nc(F)nc2c1ncn2[C@@H]1O[C@H](CO)[C@@H](O)[C@H]1O | 1.37 µM
Cn1nc(CC(=O)Nc2ccc3c(c2)OCCO3)c2ccccc2c1=O | 68.7 µM (inactive)
COc1ccc(NS(=O)(=O)c2cccc(NC(=O)c3ccc(Cl)nc3)c2)cc1 | 70.3 µM (inactive)
COc1cccc(NC(=O)Nc2cccc(C(=O)O)c2)c1 | 1.62 µM
COc1cc(/C=N/NC(=S)Nc2cccc(C(=O)O)c2)ccc1O | 15.3 µM
O=C(Nc1cccc(C(=O)O)c1)Nc1ccc2c(c1)OCO2 | 1.14 µM
Cc1ccc(-c2csc(NC(=O)C3CCN(S(=O)(=O)c4cccs4)CC3)n2)cc1 | > 80 µM (inactive)
NC1=NC[C@H](Cc2ccc(O)cc2)N1CCCCC1CCCCC1 | > 80 µM (inactive)
N#Cc1c(NC(=O)CSc2ncn[nH]2)sc2c1CCCCC2 | 0.283 µM
O=C(NCCc1ccccc1F)c1ccc2c(c1)OCCO2 | 0.675 µM
CCCCCn1c(=O)[nH]c2cc(C(=O)N3CCN(Cc4ccc5c(c4)OCO5)CC3)ccc2c1=O | > 80 µM (inactive)
Cn1nc(C(C)(C)C)cc1C(=O)NCc1ccc(N2CCCC2=O)cc1 | > 80 µM (inactive)
C[C@H](NC(=O)c1nc[nH]c1C(=O)N[C@@H](C)C(=O)OCc1ccccc1)C(=O)OCc1ccccc1 | > 80 µM (inactive)
CCOc1ccc(NC(=O)Nc2cccc(C(=O)O)c2)cc1 | 0.504 µM
COc1ccccc1C(=O)Nc1nc(-c2ccc(S(=O)(=O)N3CCOCC3)cc2)cs1 | 7.17 µM
Cc1cc(CSc2ccccc2)ccc1NC(=O)c1ccc(CN2CCOCC2)cc1 | > 80 µM (inactive)
CC[n+]1c(C=C2C=C(C)OC(C)=C2)sc2ccccc21 | > 80 µM (inactive)
COC(=O)CCn1nnc(-c2ccc(C(C)C)cc2)n1 | < 0.16 µM
CCc1ccc(-c2nc(CS(=O)CC(=O)NCc3ccco3)c(C)o2)cc1 (configuration not stated) | > 80 µM (inactive)
CCN(CC)S(=O)(=O)c1ccc(Oc2ccc(S(=O)(=O)N(CC)CC)cc2)cc1 | > 80 µM (inactive)
Cc1ccc(C(=O)CN2C(=O)c3ccccc3S2(=O)=O)cc1 | 1.33 µM
CC(C)(C)c1ccc(C(=O)N2CCCCCC2=O)cc1 | 0.579 µM

Compound | IC50
CC(C)(O)c1[nH]c2ccc(C#N)cc2c1C(C)(C)O | > 80 µM (inactive)
Cc1cc(NNC(=O)Nc2cccc(Cl)c2)nc2c1c(C)nn2C | > 80 µM (inactive)
Cc1ccc(OCCN2CCN(c3ncnc4sc(C)c(C)c34)CC2)cc1 | > 80 µM (inactive)
COc1ccc(CCNc2c(C)c(C)nc3ncnn23)cc1 | > 80 µM (inactive)
Cc1ccc(C(=O)Nc2cccc(C(F)(F)F)c2)cc1NC(=O)c1ccno1 | 4.09 µM
N#CC(c1cccc(Cl)c1)c1ccc2c(C(F)(F)F)cc(C(F)(F)F)nc2n1 (configuration not stated) | > 80 µM (inactive)
CC(=O)OC[C@]12CCC(C)=C[C@H]1O[C@@H]1[C@H](O)[C@@H](OC(C)=O)[C@@]2(C)[C@]12CO2 | < 0.16 µM
Nc1nc(Cl)nc2c1ncn2C1CC(O)C(CO)O1 (configuration not stated) | > 80 µM (inactive)
C#CC(=O)N(c1cc(OC)ccc1OC)C(C(=O)NC1CCCC1)c1cccs1 (configuration not stated) | 0.219 µM
CCCCCCn1c2c(c(=N)c3c1CCC3)CCC2 | > 80 µM (inactive)
CC1CCc2c(sc(NC(=O)CSc3ncn[nH]3)c2C#N)C1 (configuration not stated) | 0.209 µM
COc1cc(CSc2nnnn2-c2ccc(C)cc2)cc(OC)c1OC | > 80 µM (inactive)
O=C(NCCc1ccccc1)c1ccc2c(c1)OCCCO2 | 0.366 µM
CC(=O)c1cn(Cc2ccccc2C#N)c2ccccc12 | > 80 µM (inactive)
COc1ccc(/C=C/c2cc(-c3ccc(C)cc3)o[n+]2C)cc1 | 5.74 µM
CCOc1cc(S(=O)(=O)NCc2ccncc2)ccc1Cl | > 80 µM (inactive)
O=C(NCCNCCO)C1(C(F)(F)F)C/C(=C\CCO)CCCO1 (configuration not stated) | > 80 µM (inactive)
Cc1cc2sc3ccc(C#CC4(O)CCCCC4)cc3c(=O)c2cc1C | < 0.16 µM
CCCCC[n+]1cccc2c3ccccc3ccc21 | > 80 µM (inactive)
O=C(CCl)N=c1sccn1Cc1ccc(Cl)cc1Cl | < 0.16 µM
CC(C)c1ccc(-c2nnn(CCC(=O)O)n2)cc1 | 0.202 µM
Nc1ncnc2c1ccn2[C@@H]1O[C@H](CO)[C@@H](O)[C@H]1O | 1.01 µM
O=C(Nc1ccc([N+](=O)[O-])cc1)C(=O)Nc1cccc(C(=O)O)c1 | 0.946 µM
COC1=CC(=O)[C@]2(C=C1OC)OC[C@@H]1Oc3c(ccc4c3C=CC(C)(C)O4)C(=O)[C@@H]12 | 47.7 µM (inactive)
Cc1cc(Cl)c(S(=O)(=O)N2CCN(c3ccc(F)cc3)CC2)cc1OCC(=O)NC1CCCCC1 | > 80 µM (inactive)

Test system: not listed separately
Test: as above
Settings: 697 B-cell NF-kB luciferase reporter, PMA/ionomycin, 16 h; at 80 µM (top of the series)

Compound | inhibition
N=c1c2c(n(Cc3ccc(Br)cc3)c3c1CCC3)CCCC2 | 60.6% (inactive)
N=c1ccn2c(n1)O[C@H]1[C@@H](CO)[C@H](O)O[C@H]12 | 48.5%
